Laboratory results: patent US4914198A, “Novel substance UCY1003 and process for preparing the same” (priority 1985, dated 1990)
Converted amounts (≈) assume the structure as drawn.

Assays:
[1] = test system: Male spontaneously hypertensive rats (SHR) of Okamoto-Aoki strain; test: Hypotensive activity: systolic blood pressure of conscious SHR, tail artery, plethysmographic apparatus; type: in vivo, rat (SHR; settings: for Blood Pressure after (90 min): 90 min after administration; for Blood Pressure after (90 min) / Blood Pressure Difference (before vs 90 min after administration) / Blood Pressure before: N = 3; for Blood Pressure after (90 min) / Blood Pressure before: mean ± S.E.; for Blood Pressure Difference (before vs 90 min after administration): a decrease; for Blood Pressure before: before administration (baseline)
Experimental: Male spontaneously hypertensive rats (SHR) of Okamoto-Aoki strain (body weight, 310-360 g) were used. Systolic blood pressure of conscious SHR was measured indirectly from the tail artery with a plethysmographic apparatus (Ueda Electric Works, USM-105R). Test compound UCY1003 was suspended in 0.3% sodium carboxymethylcellulose (CMC) solution and was intraperitoneally administered in a volume of 2 ml per kg of body weight.

[2] = test system: male dd mice (number of writhes); test: Analgesic activity: acetic acid-induced writhing in mice; type: in vivo; settings: for Inhibition Ratio: i.p., 60 min before acetic acid, N = 4
Experimental: In this experiment, 4 male dd mice wieghing 20±1 g were used as one group for examination of analgesic activity. Sixty minutes after intraperitoneal administration of UCY1003 to each animal, 0.2 ml of a 0.7% acetic acid solution was intraperitoneally administered to the animal. Starting 10 minutes after the administration of acetic acid, the number of writhes occurred in 5 minutes was counted. Inhibition ratio in comparison with control group was calculated by the following equation. ED50 value was calculated in accordance with Litchfield and Wilcoxon. [formula] A: Average number of writhes of control group B: Average number of writhes of test group

[3] = test system: Salmonella typhosa ATCC 9992; test: Agar dilution method (pH 7), MIC; type: cell-based; settings: Salmonella enterica
Description: (§1) Anti-bacterial activities of UCY1003 against various microorganisms measured by agar dilution method (pH 7) are shown in Table 3.

[4] = test system: Candida albicans ATCC 10231; test: Agar dilution method (pH 7), MIC; type: cell-based; settings: ATCC10231
Description: as §1

[5] = test system: Bacillus subtilis No. 10707; test: Agar dilution method (pH 7), MIC; type: cell-based
Description: as §1

[6] = test system: Staphylococcus aureus ATCC 6538P; test: Agar dilution method (pH 7), MIC; type: cell-based; settings: ATCC6538P
Description: as §1

[7] = test system: Escherichia coli ATCC 26; test: Agar dilution method (pH 7), MIC; type: cell-based; settings: ATCC26
Description: as §1

[8] = test system: Klebsiella pneumoniae ATCC 10031; test: Agar dilution method (pH 7), MIC; type: cell-based; settings: ATCC10031
Description: as §1

[9] = test system: Saccharomyces cerevisiae C-203; test: Agar dilution method (pH 7), MIC; type: cell-based; settings: C203
Description: as §1

[10] = Acute toxicity in mice; settings: mouse, in vivo, ip; single intraperitoneal administration, 5 ddY mice, 14 days observation, Beherns Karber's method
Experimental: UCY1003 was intraperitoneally administered once to each animal of the test group consisting of 5 ddY mice. […] The LD50 was determined by Beherns Karber's method to be more than 200 mg/kg.

C=C(CCC1(C)OC2O[C@@H]3C[C@H]1[C@]21CC[C@@H]2[C@@]4(C)CC[C@H](O)C[C@@H]4C[C@@H]4O[C@@]42[C@H]31)C(C)C (stereo partly drawn) [UCY1003]
Blood Pressure after (90 min) ([1]; 50 mg/kg, i.p.): 177 ± 14 mmHg
Blood Pressure Difference (before vs 90 min after administration) ([1]; 50 mg/kg, i.p.): 18 ± 15 mmHg
hypotension ([1]; 100 mg/kg, i.p.): caused hypotension
Blood Pressure after (90 min) ([1]; 100 mg/kg, i.p.): 142 ± 9 mmHg
Blood Pressure Difference (before vs 90 min after administration) ([1]; 100 mg/kg, i.p.): 45 ± 8 mmHg
Blood Pressure before ([1]; 50 mg/kg i.p. group): 195 ± 8 mmHg
Blood Pressure before ([1]; 100 mg/kg i.p. group): 187 ± 3 mmHg
Inhibition Ratio ([2]; 5 mg/kg): 17%
Inhibition Ratio ([2]; 10 mg/kg): 52%
Inhibition Ratio ([2]; 25 mg/kg): 52%
Inhibition Ratio ([2]; 50 mg/kg): 83%
Inhibition Ratio ([2]; 100 mg/kg): 95%
ED50 ([2]; Mus musculus, ip, calculated in accordance with Litchfield and Wilcoxon): 17 mg/kg
MIC [3]: > 100 µg/mL
MIC [4]: > 100 µg/mL
MIC [5]: > 100 µg/mL
MIC [6]: > 100 µg/mL
MIC [7]: > 100 µg/mL
MIC [8]: > 100 µg/mL
MIC [9]: 2 µg/mL (≈ 4.52 µM)
LD50 at 336 h [10]: > 200 mg/kg
